Test results as given in the NIST ThermoML archive (doi:10.1016/j.jct.2008.02.002).
“And” between values parts separate entries of the source, which are not always exact repeats. Identical values can stand only once.

Conditions: Liquid, Transpiration method

CC1CCC(=O)O1 (stereo unspecified) [γ-valerolactone]
Conditions | vapor or sublimation pressure [kPa]
275.8 K | 0.00748
282 K | 0.0128
288 K | 0.02076
292.8 K | 0.02954
293.4 K | 0.03202
298.6 K | 0.04438
300.7 K | 0.05548
302.7 K | 0.06032
306.6 K | 0.08358
309 K | 0.09563
312.9 K | 0.1265
317.3 K | 0.1599
322.3 K | 0.2195
326.9 K | 0.2912
332.4 K | 0.3929
333.9 K | 0.4475
337.3 K | 0.5167
338.8 K | 0.58
342.6 K | 0.7011
343.8 K | 0.759
347.5 K | 0.9099
349.7 K | 1.033

CCCCCC1CCC(=O)O1 (stereo unspecified) [2(3H)-furanone, dihydro-5-pentyl-]
Conditions | vapor or sublimation pressure [kPa]
296.2 K | 0.00085
300 K | 0.00123
306 K | 0.00211
313.1 K | 0.00391
318.1 K | 0.00574
323.2 K | 0.0088
328.2 K | 0.01277
333.1 K | 0.01835
338 K | 0.02514
342.8 K | 0.03648
348.4 K | 0.05463
353.2 K | 0.07252
358.1 K | 0.1037
363.4 K | 0.1375

CCC1CCC(=O)O1 (stereo unspecified) [2(3H)-furanone, 5-ethyldihydro-]
Conditions | vapor or sublimation pressure [kPa]
283.3 K | 0.00612
284.1 K | 0.00643
285.3 K | 0.00733
288.2 K | 0.00998
290.2 K | 0.01151
293.2 K | 0.01468
295.3 K | 0.0168
298.2 K | 0.02155
300.2 K | 0.0271
303.2 K | 0.0324
305.2 K | 0.0372
308.1 K | 0.04647
310.1 K | 0.05153
313.2 K | 0.06502
315.1 K | 0.06992
318.2 K | 0.08725
323.2 K | 0.1267
328.2 K | 0.1719
333.2 K | 0.2306
338.2 K | 0.3093
343.1 K | 0.4065
348.2 K | 0.5374
350.9 K | 0.6238
353.3 K | 0.6982

CCCCCCC1CCC(=O)O1 (stereo unspecified) [γ-decalactone]
Conditions | vapor or sublimation pressure
298.4 K | 0.00035 kPa
303.3 K | 0.00056 kPa
308.2 K | 0.00088 kPa
313.1 K | 0.00146 kPa
313.4 K | 0.00144 kPa
318.2 K | 0.00214 kPa and 0.00233 kPa
322.9 K | 0.00339 kPa
323.2 K | 0.00345 kPa
328.1 K | 0.00532 kPa
328.2 K | 0.00523 kPa
333 K | 0.00765 kPa
333.2 K | 0.00791 kPa
338.1 K | 0.0114 kPa
338.7 K | 0.01181 kPa
343.2 K | 0.01646 kPa
343.9 K | 0.01747 kPa
348.2 K | 0.02361 kPa
349.4 K | 0.02507 kPa
353.3 K | 0.03379 kPa
354.8 K | 0.03595 kPa
360.3 K | 0.05404 kPa
365 K | 0.07279 kPa

CCCC1CCC(=O)O1 (stereo unspecified) [2(3H)-furanone, dihydro-5-propyl-]
Conditions | vapor or sublimation pressure [kPa]
298.1 K | 0.00729
302.8 K | 0.01081
308 K | 0.01613
313.1 K | 0.02435
318 K | 0.03459
323.1 K | 0.05178
328.1 K | 0.07127
333 K | 0.09289
338.2 K | 0.1344
343.2 K | 0.1842
348.2 K | 0.2432
353.2 K | 0.3239
358.4 K | 0.4408
363.2 K | 0.572
